{
  "source": "paper PMC8636635",
  "about": "(Communications Biology, 2021)",
  "target": "Protein 3a (Severe acute respiratory syndrome coronavirus 2, UniProt P0DTC3)",
  "sequence (P0DTC3 whole entry)": "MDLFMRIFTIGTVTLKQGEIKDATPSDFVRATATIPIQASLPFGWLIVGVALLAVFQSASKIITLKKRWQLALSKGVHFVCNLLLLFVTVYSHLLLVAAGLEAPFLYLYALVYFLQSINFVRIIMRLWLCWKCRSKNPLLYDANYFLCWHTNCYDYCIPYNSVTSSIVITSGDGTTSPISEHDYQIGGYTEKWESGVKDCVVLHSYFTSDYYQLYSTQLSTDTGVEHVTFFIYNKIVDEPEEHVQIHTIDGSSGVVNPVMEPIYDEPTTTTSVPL",
  "experiment": "two-electrode voltage clamp, X. laevis oocytes",
  "conditions": "read-out: % block at 10 μM",
  "data": [
    {"smiles": "c1ccc2c(c1)Cc1ccccc1O2", "note": "[xanthene]", "values": [
      {"measurement": "inhibition at 10 µM", "value": 20, "unit": "%"}
    ]}
  ]
}
